Here are results for 6 compounds from EP4603105A1, “PHARMACEUTICAL COMPOSITION CONTAINING CYCLIC COMPOUND HAVING SELECTIVE KRAS INHIBITORY EFFECT AGAINST HRAS AND NRAS” (CHUGAI SEIYAKU KABUSHIKI KAISHA, priority 2022, dated 2024).

SMILES strings stand for the structures.

Experiment [1] deals with GDP-bound NRAS wild-type protein (Homo sapiens, UniProt P01111). Description: Binding to NRAS by surface plasmon resonance (SPR), KD and KD ratio to KRAS. Particulars: ratio of KD for GDP-bound NRAS wild-type protein to KD for KRAS. A digest of the protocol:
(§1)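 Compound binding is evaluated by SPR single-cycle kinetics, with concentrations added intermittently from low to high for 75 s each. Target surfaces carry GDP-loaded biotinylated Avi-RAS at about 100–300 RU, regenerated after each cycle; temperature 30°C. A 1:1 binding model gives KD.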

For experiment [2], the target named is HRAS wild-type protein (Homo sapiens, UniProt P01112). Put plainly: Binding to HRAS by surface plasmon resonance (SPR), KD and KD ratio to KRAS. The settings on record: ratio of KD for HRAS wild-type protein to KD for KRAS. The gist of the method: as §1
HRAS wild-type protein, sequence (P01112 whole entry): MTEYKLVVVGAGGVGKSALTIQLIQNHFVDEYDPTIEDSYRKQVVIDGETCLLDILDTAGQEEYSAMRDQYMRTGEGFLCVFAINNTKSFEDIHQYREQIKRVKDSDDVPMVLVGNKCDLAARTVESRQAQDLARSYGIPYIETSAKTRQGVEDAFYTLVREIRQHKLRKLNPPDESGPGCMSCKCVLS
For experiment [3], the target named is GDP-bound KRAS wild-type protein (Homo sapiens, UniProt P01116). Description: Binding to KRAS by surface plasmon resonance (SPR), dissociation constant KD. The settings on record: 1:1 binding model. The gist of the method:
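SPR, 30°C: Avi-biotin RAS·GDP captured via Biotin CAPture (~100–300 RU); running buffer HBS pH 7.4, 1 mM DTT, 10 mM MgCl2, 0.01% Tween 20, 10 µM GDP, 4% DMSO. Single-cycle kinetics, 100 µL/min, 75 s injections; 1:1 model → KD.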

In experiment [4] the test system is human lung cancer strain NCI-H441. The format is cell-based. A digest of the protocol:
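Proliferation was scored by […] measured after the reagent was added to cultures kept at 37°C in 5% carbon dioxide.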

GDP-bound NRAS wild-type protein, sequence (P01111 whole entry): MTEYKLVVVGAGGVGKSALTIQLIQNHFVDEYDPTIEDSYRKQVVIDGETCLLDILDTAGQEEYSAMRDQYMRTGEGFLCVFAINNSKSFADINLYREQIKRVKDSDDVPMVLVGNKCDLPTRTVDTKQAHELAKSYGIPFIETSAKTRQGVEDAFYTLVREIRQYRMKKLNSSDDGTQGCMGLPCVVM
GDP-bound KRAS wild-type protein, sequence (P01116 1-188 isoform P01116-2): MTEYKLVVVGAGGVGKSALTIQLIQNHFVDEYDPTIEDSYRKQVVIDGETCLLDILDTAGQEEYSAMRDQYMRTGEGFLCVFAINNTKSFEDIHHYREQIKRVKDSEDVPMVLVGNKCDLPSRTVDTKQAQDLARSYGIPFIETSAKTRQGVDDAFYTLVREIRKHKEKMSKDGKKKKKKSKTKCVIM

In the case of `CCO[C@@H]1C[C@H]2C(=O)NC3(CC(C)(C)C3)C(=O)N(C)[C@@H](C3CCCC3)C(=O)N(C)[C@H](C(=O)N(C)CC)CC(=O)N(C)[C@@H](CC(C)C)C(=O)N[C@@H]([C@@H](C)CC)C(=O)N(C)CC(=O)N(C)[C@H]3C/C=C\CCN(C3=O)[C@@H](Cc3ccc(C(F)F)cc3)C(=O)N(C)CC(=O)N[C@@H](CCc3ccc(CC)c(F)c3)C(=O)N2C1` [PP3157], the “NRAS /KRAS” value in experiment [1] was “A (a compound having 10 or more and less than 20 is denoted as A)”. Further, the “HRAS /KRAS” value in experiment [2] was “A (a compound having 10 or more and less than 20 is denoted as A)”. Besides, the dissociation constant Kd in experiment [3] turned out to be 2.1 nM. Moreover, the IC50 in experiment [4] worked out at 88.5 nM.

In the case of `CCO[C@@H]1C[C@H]2C(=O)NC3(CC(C)(C)C3)C(=O)N(C)[C@@H](C3CCCC3)C(=O)N(C)[C@H](C(=O)N(C)CC)CC(=O)N(C)[C@@H]([C@@H](C)OC)C(=O)N[C@@H]([C@@H](C)CC)C(=O)N(C)CC(=O)N(C)[C@H]3C/C=C\CCN(C3=O)[C@@H](Cc3ccc(C(F)(F)F)cc3)C(=O)N(C)CC(=O)N[C@@H](CCc3ccc(C(F)(F)F)c(OC)c3)C(=O)N2C1` [PP3158], the “NRAS /KRAS” value in experiment [1] is “A (a compound having 10 or more and less than 20 is denoted as A)”. The “HRAS /KRAS” value in experiment [2] is “A (a compound having 10 or more and less than 20 is denoted as A)”. In experiment [3], the affinity, expressed as Kd, was 0.076 nM. In experiment [4], the IC50 amounted to 9.7 nM.

For the compound `CCO[C@@H]1C[C@H]2C(=O)NC3(CC(C)(C)C3)C(=O)N(C)[C@@H](C3CCCC3)C(=O)N(C)[C@H](C(=O)N(C)CC)CC(=O)N(C)[C@@H]([C@H](C)OC)C(=O)N[C@@H]([C@@H](C)CC)C(=O)N(C3CC3)CC(=O)N(C)[C@H]3C/C=C\CCN(C3=O)[C@@H](Cc3ccc(C)cc3)C(=O)N(C)CC(=O)N[C@@H](CCc3ccc(C(F)(F)F)c(Cl)c3)C(=O)N2C1` [PP3159], the “NRAS /KRAS” value in experiment [1] was “A (a compound having 10 or more and less than 20 is denoted as A)”. Besides, the “HRAS /KRAS” value in experiment [2] was “A (a compound having 10 or more and less than 20 is denoted as A)”. Moreover, the Kd in experiment [3] came out at 0.6 nM. The IC50 in experiment [4] was 50.1 nM.

In the case of `CCO[C@@H]1C[C@H]2C(=O)NC3(CC(C)(C)C3)C(=O)N(C)[C@@H](C3CCCC3)C(=O)N(C)[C@H](C(=O)N(C)CC)CC(=O)N(C)[C@@H]([C@@H](C)OC)C(=O)N[C@@H]([C@@H](C)CC)C(=O)N(C)CC(=O)N(C)[C@H]3C/C=C\CCN(C3=O)[C@@H](Cc3ccc(C(F)(F)F)cc3)C(=O)N(C)CC(=O)N[C@@H](CCc3cc(F)c(C(F)(F)F)c(F)c3)C(=O)N2C1` [PP3160], the “NRAS /KRAS” value in experiment [1] was “A (a compound having 10 or more and less than 20 is denoted as A)”. In experiment [2], the “HRAS /KRAS” value was “A (a compound having 10 or more and less than 20 is denoted as A)”. In experiment [3], this compound displayed a Kd of 0.07 nM. In experiment [4], this compound had an IC50 of 13.2 nM.

As for `CCO[C@@H]1C[C@H]2C(=O)NC3(CC(C)(C)C3)C(=O)N(C)[C@@H](C3CCCC3)C(=O)N(C)[C@H](C(=O)N(C)CC)CC(=O)N(C)[C@@H]([C@H](C)OC)C(=O)N[C@@H]([C@@H](C)CC)C(=O)N3CCC[C@H]3C(=O)N(C)[C@H]3C/C=C\CCN(C3=O)[C@@H](Cc3ccc(C)cc3)C(=O)N(C)CC(=O)N[C@@H](CCc3ccc(C(F)(F)F)c(OC)c3)C(=O)N2C1` [PP3161], the “NRAS /KRAS” value in experiment [1] is “A (a compound having 10 or more and less than 20 is denoted as A)”. In experiment [2], the “HRAS /KRAS” value is “A (a compound having 10 or more and less than 20 is denoted as A)”. In addition, the Kd in experiment [3] came to 2.3 nM. Moreover, it took 150 nM to reach half-maximal inhibition in experiment [4] (IC50).

Consider `CCO[C@@H]1C[C@H]2C(=O)NC3(CC(C)(C)C3)C(=O)N(C)[C@@H](C3CCCC3)C(=O)N(C)[C@H](C(=O)N(C)CC)CC(=O)N(C)[C@@H]([C@H](C)OC)C(=O)N[C@@H]([C@@H](C)CC)C(=O)N3CCC[C@H]3C(=O)N(C)[C@H]3C/C=C\CCN(C3=O)[C@@H](Cc3ccc(C)cc3)C(=O)N(C)CC(=O)N[C@@H](CCc3cc(F)c(C(F)(F)F)c(F)c3)C(=O)N2C1` [PP3163], for which the “NRAS /KRAS” value in experiment [1] is “A (a compound having 10 or more and less than 20 is denoted as A)”. In addition, the “HRAS /KRAS” value in experiment [2] was “A (a compound having 10 or more and less than 20 is denoted as A)”. The compound also displayed a dissociation constant Kd in experiment [3] of 1.8 nM. In experiment [4], this compound had an IC50 of 296 nM.
